# Like-named read-outs stand apart in the source and are kept apart here.
# Legend:
# Test in all cases: CLSI broth dilution MIC determination
# Type in all cases: cell-based
# [1] = test system: S. pyogenes Macrolide-resistant
# [2] = test system: P. aeruginosa MP-7 PAO1; settings: Pseudomonas aeruginosa, read-out: MIC
# [3] = test system: K. pneumoniae MP-546 Clinical-MDR; settings: Klebsiella pneumoniae, read-out: MIC
# [4] = test system: K. pneumoniae ATCC 10031
# [5] = test system: S. pyogenes ATCC 19615
# [6] = test system: A. baumannii MP-577 Clinical-AZT low; settings: Acinetobacter baumannii, read-out: MIC
# [7] = test system: P. aeruginosa MP-8 PAO1:mex (mex-oprM-deletion); settings: Pseudomonas aeruginosa, PAO1
# [8] = test system: A. baumannii ATCC 19606
# [9] = test system: A. baumannii MP-576 Clinical-MDR; settings: Acinetobacter baumannii, read-out: MIC
# [10] = test system: K. pneumoniae MP-548 clinical; settings: Klebsiella pneumoniae, MP548CLINICAL, read-out: MIC
# [11] = test system: S. aureus ATCC 29213
# Procedure, shortened: (§1)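 Compounds are serially diluted in broth per CLSI standard methods to give the MIC; azithromycin and solithromycin act as comparator macrolides in many cases, and resistance genotypes may be inducible or constitutive.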
# [12] = test system: S. aureus erm A genotype
# Procedure, shortened: as §1
# [13] = test system: S. pneumoniae mef A genotype (first strain so labelled); settings: Streptococcus pneumoniae, first strain (MP-626 UNT-038)
# Procedure, shortened: as §1
# [14] = test system: S. pneumoniae mef A genotype (second strain so labelled)
# Procedure, shortened: as §1
# [15] = test system: S. aureus (MRSA) MP-513 ST-228 cErm (Clinical-cErm); settings: Staphylococcus aureus, read-out: MIC
# Procedure, shortened: as §1
# [16] = test system: S. aureus MP-17 ATCCBAA-977 (BAA 977 iErm); settings: Staphylococcus aureus; S. aureus MP-17, ATCCBAA-977, iErm; read-out: MIC
# Procedure, shortened: as §1
# [17] = test system: E. coli MP-9 ATCC25922:tolC; settings: Escherichia coli, ATCC25922
# Procedure, shortened: as §1
# [18] = test system: E. coli MP-532 clinical-cErmB; settings: Escherichia coli
# Procedure, shortened: as §1
# [19] = test system: E. coli ATCC 25922
# Procedure, shortened: as §1
# [20] = test system: E. coli MP-541 clinical; settings: Escherichia coli, MP541CLINICAL, read-out: MIC
# Procedure, shortened: as §1
# [21] = test system: S. aureus MRSA: USA300
# Procedure, shortened: as §1
# [22] = test system: S. pneumoniae ATCC 49619
# Procedure, shortened: as §1
# [23] = test system: S. aureus MRSA: USA100
# Procedure, shortened: as §1
# [24] = test system: S. aureus USA600, GISA
# Procedure, shortened: as §1
# [25] = test system: E. faecalis Vancomycin-resistant
# [26] = test system: P. aeruginosa ATCC 27853
# [27] = test system: E. faecalis ATCC 29212
# [28] = test system: A. baumannii chromosomal class C; settings: Gram-negative
# [29] = test system: P. aeruginosa HPA101-1477; settings: Gram-negative
# [30] = test system: K. pneumoniae KPC-2; settings: Gram-negative
# [31] = test system: K. pneumoniae SHV-12; settings: Gram-negative
# [32] = test system: H. influenzae Erythro >4, Azithro 1; settings: H. influenzae Erythro >4, Azithro 1; Gram-negative
# Excerpt: MIC data was collected for the novel macrolides that this platform has produced against over 21 unique strains of B. subtilis, E. coli, S. aureus, S. pneumoniae, and H. influenzae, including several multidrug-resistant strains, with a special focus on macrolide resistant mechanisms (vide supra). […] CLSI standard procedures for broth dilution MIC determination were used. […] These genotypes can be constitutive or inducible.
# [33] = test system: H. influenzae ATCC49247; settings: Gram-negative
# Procedure, shortened: as §1
# [34] = test system: E. coli TEM-1; settings: E. coli TEM-1; Gram-negative
# Procedure, shortened: as §1
# [35] = test system: K. pneumoniae TEM-10; settings: Gram-negative
# [36] = test system: E. coli CTX-M-14; settings: Gram-negative
# Procedure, shortened: as §1
# [37] = test system: S. pneumoniae erm B + mef A genotype; settings: S. pneumoniae erm B + mef A genotype; Gram-positive
# Procedure, shortened: as §1
# [38] = test system: E. coli NDM-1; settings: Gram-negative
# Procedure, shortened: as §1
# [39] = test system: A. baumannii imipenem-resistant; settings: Gram-negative
# [40] = test system: A. baumannii IMP-4; settings: Gram-negative
structure (smiles),measurement,setting,value
CC[C@H]1OC(=O)[C@H](C)C(=O)[C@H](C)[C@@H](O[C@@H]2OC(C)CC(N(C)C)C2O)[C@](C)(OC)C[C@@H](C)C(=O)[C@H](C)[C@H]2N(CC#CCn3cc(-c4cccc(N)n4)nn3)C(=O)O[C@]12C (stereo partly shown) [FSM-100551],MIC,"[1]; Streptococcus pyogenes, S. pyogenes Macrolide-resistant (MP-625 UNT-014), read-out: MIC",0.06 µg/mL
same,MIC,[2],32 µg/mL
same,MIC,[3],> 64 µg/mL
same,MIC,"[4]; Klebsiella pneumoniae, ATCC10031, K. pneumoniae ATCC 10031 (MP-14), read-out: MIC",8 µg/mL
same,MIC,"[5]; Streptococcus pyogenes, ATCC19615, S. pyogenes ATCC 19615 (MP-19), read-out: MIC",< 0.03 µg/mL
same,MIC,[6],16 µg/mL
same,MIC,[7],4 µg/mL
same,MIC,"[8]; Acinetobacter baumannii, ATCC19606, A. baumannii ATCC 19606 (MP-15), read-out: MIC",4 µg/mL
same,MIC,[9],> 64 µg/mL
same,MIC,[10],32 µg/mL
same,MIC,"[11]; Staphylococcus aureus, ATCC29213, S. aureus ATCC 29213 (MP-12), read-out: MIC",0.06 µg/mL
same,MIC,"[12]; Staphylococcus aureus, S. aureus erm A genotype (MP-620 UNT-146), read-out: MIC",> 64 µg/mL
same,MIC,[13],< 0.03 µg/mL
same,MIC,"[14]; Streptococcus pneumoniae, second strain (MP-627 UNT-039), read-out: MIC",< 0.03 µg/mL
same,MIC,[15],> 64 µg/mL
same,MIC,[16],0.06 µg/mL
same,MIC,[17],2 µg/mL
same,MIC,[18],> 64 µg/mL
same,MIC,"[19]; Escherichia coli, ATCC25922, E. coli ATCC 25922 (MP-4), read-out: MIC",8 µg/mL
same,MIC,[20],16 µg/mL
same,MIC,"[21]; Staphylococcus aureus, S. aureus MRSA: USA300 (MP-549, msr(a)), read-out: MIC",0.125 µg/mL
same,MIC,"[22]; Streptococcus pneumoniae, ATCC49619, S. pneumoniae ATCC 49619 (MP-21), read-out: MIC",< 0.03 µg/mL
same,MIC,"[23]; Staphylococcus aureus, S. aureus MRSA: USA100 (MP-618 UNT-096), read-out: MIC",> 64 µg/mL
same,MIC,"[24]; Staphylococcus aureus, S. aureus USA600, GISA (MP-619 UNT-120), read-out: MIC",64 µg/mL
same,MIC,"[25]; Enterococcus faecalis, E. faecalis Vancomycin-resistant (UNT-039), read-out: MIC",4 µg/mL
same,MIC,"[26]; Pseudomonas aeruginosa, ATCC27853, P. aeruginosa ATCC 27853 (MP-3), read-out: MIC",16 µg/mL
same,MIC,"[27]; Enterococcus faecalis, ATCC29212, E. faecalis ATCC 29212 (MP-24), read-out: MIC",< 0.03 µg/mL
"CC[C@H]1OC(=O)[C@H](C)C(=O)[C@H](C)[C@@H](O[C@@H]2OC(C)CC(N(C)C)C2O)[C@](C)(OC)C[C@@H](C)C(=O)[C@H](C)[C@H]2N(CC3CC3Cn3cc(-c4cccc(N)c4)nn3)C(=O)O[C@]12C (single isomer, unassigned) [FSM-100434]",MIC,"[1]; S. pyogenes Macrolide-resistant, Gram-positive",< 0.0312 µg/mL
same,MIC,[28],16 µg/mL
same,MIC,"[4]; K. pneumoniae ATCC 10031, Gram-negative",32 µg/mL
same,MIC,"[5]; S. pyogenes ATCC 19615, Gram-positive",< 0.0312 µg/mL
same,MIC,[29],> 32 µg/mL
same,MIC,"[8]; A. baumannii ATCC 19606, Gram-negative",16 µg/mL
same,MIC,[30],> 32 µg/mL
same,MIC,[31],> 32 µg/mL
same,MIC,[32],> 32 µg/mL
same,MIC,"[11]; S. aureus ATCC 29213, Gram-positive",0.25 µg/mL
same,MIC,"[12]; S. aureus erm A genotype, Gram-positive",> 32 µg/mL
same,MIC,[33],> 32 µg/mL
same,MIC,[14]; Gram-positive,0.125 µg/mL
same,MIC,[34],> 32 µg/mL
same,MIC,[35],> 32 µg/mL
same,MIC,[36],> 32 µg/mL
same,MIC,[37],1 µg/mL
same,MIC,"[19]; E. coli ATCC 25922, Gram-negative",> 32 µg/mL
same,MIC,"[21]; S. aureus MRSA: USA300, Gram-positive",> 32 µg/mL
same,MIC,"[22]; S. pneumoniae ATCC 49619, Gram-positive",< 0.0312 µg/mL
same,MIC,"[23]; S. aureus MRSA: USA100, Gram-positive",> 32 µg/mL
same,MIC,"[24]; S. aureus USA600, GISA, Gram-positive",> 32 µg/mL
same,MIC,[38],> 32 µg/mL
same,MIC,"[25]; E. faecalis Vancomycin-resistant, Gram-positive",> 32 µg/mL
same,MIC,[39],16 µg/mL
same,MIC,"[26]; P. aeruginosa ATCC 27853, Gram-negative",> 32 µg/mL
same,MIC,[40],> 32 µg/mL
same,MIC,"[27]; E. faecalis ATCC 29212, Gram-positive",< 0.0312 µg/mL
